Measured values taken from paper PMC4411097, “Pachymic Acid Inhibits Growth and Induces Apoptosis of Pancreatic Cancer In Vitro and In Vivo by Targeting ER Stress” (PLoS ONE, 2015).

Test system: MIA PaCa-2 cells
Assay: DNA microarray analysis (Affymetrix Human PrimeView);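 on Mean (MiaPaca-2 * PA): Log2-transformed RMA normalized probe set signal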
Assay type: cell-based
[1] = gene ATF3, probeset 11753632_x_at
[2] = gene C3orf52, probeset 11724431_at
[3] = gene C3orf59, probeset 11722936_at
[4] = gene C17orf91, probeset 11740895_a_at
[5] = gene C17orf91, probeset 11740896_s_at
[6] = gene CASP1, probeset 11750553_x_at
[7] = gene CCNE2, probeset 11728301_a_at
[8] = gene CD83, probeset 11743000_at
[9] = gene CDCP1, probeset 11732062_a_at
[10] = gene CDKN1A, probeset 11715387_at
[11] = gene CEBPG, probeset 11717693_at
[12] = gene CTGF, probeset 11715440_a_at
[13] = gene CTPS, probeset 11747890_a_at
[14] = gene CTSC, probeset 11731465_a_at
[15] = gene DDIT3, probeset 11758198_s_at
[16] = gene DNAJB1, probeset 11715445_a_at
[17] = gene DNAJB1, probeset 11715446_a_at
[18] = gene EGR1, probeset 11717862_x_at
[19] = gene EGR1, probeset 11754334_s_at
[20] = gene EGR3, probeset 11736342_at
[21] = gene EIF4A2, probeset 11760707_a_at
[22] = gene EIF4A2, probeset 11760708_at
[23] = gene FOS, probeset 11734659_a_at
[24] = gene FOSL1, probeset 11760574_x_at
[25] = gene HKDC1, probeset 11722519_at
[26] = gene HKDC1, probeset 11722521_at

## C=C(CC[C@@H](C(=O)O)[C@H]1[C@H](O)C[C@@]2(C)C3=C(CC[C@]12C)[C@@]1(C)CC[C@H](OC(C)=O)C(C)(C)[C@@H]1CC3)C(C)C [PA, Pachymic acid]
Gene AEN, probeset 11754296_a_at, MiaPaca-2
  Fold-Change (MiaPaca-2 * PA vs. MiaPaca-2 * control): 1.50
Gene AEN, probeset 11754296_a_at, MiaPaca-2, PA-treated
  Mean (MiaPaca-2 * PA): 8.26
[1]
  Fold-Change (MiaPaca-2 * PA vs. MiaPaca-2 * control): 1.60
  Mean (MiaPaca-2 * PA): 5.51
[2]
  Fold-Change (MiaPaca-2 * PA vs. MiaPaca-2 * control): 1.60
  Mean (MiaPaca-2 * PA): 7.34
[3]
  Fold-Change (MiaPaca-2 * PA vs. MiaPaca-2 * control): 1.55
  Mean (MiaPaca-2 * PA): 8.02
Gene C6orf145, probeset 11754483_a_at, MiaPaca-2
  Fold-Change (MiaPaca-2 * PA vs. MiaPaca-2 * control): 1.51
Gene C6orf145, probeset 11754483_a_at, MiaPaca-2, PA-treated
  Mean (MiaPaca-2 * PA): 7.32
[4]
  Fold-Change (MiaPaca-2 * PA vs. MiaPaca-2 * control): 1.61
  Mean (MiaPaca-2 * PA): 7.42
[5]
  Fold-Change (MiaPaca-2 * PA vs. MiaPaca-2 * control): 1.67
  Mean (MiaPaca-2 * PA): 7.56
Gene CAMTA1, probeset 11723154_s_at, MiaPaca-2
  Fold-Change (MiaPaca-2 * PA vs. MiaPaca-2 * control): 1.52
Gene CAMTA1, probeset 11723154_s_at, MiaPaca-2, PA-treated
  Mean (MiaPaca-2 * PA): 6.50
Gene CAPRIN2, probeset 11749098_a_at, MiaPaca-2
  Fold-Change (MiaPaca-2 * PA vs. MiaPaca-2 * control): 1.50
Gene CAPRIN2, probeset 11749098_a_at, MiaPaca-2, PA-treated
  Mean (MiaPaca-2 * PA): 8.43
Gene CASP1, probeset 11738884_x_at, MiaPaca-2
  Fold-Change (MiaPaca-2 * PA vs. MiaPaca-2 * control): 1.53
Gene CASP1, probeset 11738884_x_at, MiaPaca-2, PA-treated
  Mean (MiaPaca-2 * PA): 7.07
[6]
  Fold-Change (MiaPaca-2 * PA vs. MiaPaca-2 * control): 1.55
  Mean (MiaPaca-2 * PA): 7.39
[7]
  Fold-Change (MiaPaca-2 * PA vs. MiaPaca-2 * control): 1.56
  Mean (MiaPaca-2 * PA): 6.40
[8]
  Fold-Change (MiaPaca-2 * PA vs. MiaPaca-2 * control): 1.58
  Mean (MiaPaca-2 * PA): 7.70
Gene CDC25A, probeset 11726757_s_at, MiaPaca-2
  Fold-Change (MiaPaca-2 * PA vs. MiaPaca-2 * control): 1.51
Gene CDC25A, probeset 11726757_s_at, MiaPaca-2, PA-treated
  Mean (MiaPaca-2 * PA): 7.92
[9]
  Fold-Change (MiaPaca-2 * PA vs. MiaPaca-2 * control): 1.58
  Mean (MiaPaca-2 * PA): 6.86
[10]
  Fold-Change (MiaPaca-2 * PA vs. MiaPaca-2 * control): 1.56
  Mean (MiaPaca-2 * PA): 6.94
[11]
  Fold-Change (MiaPaca-2 * PA vs. MiaPaca-2 * control): 1.57
  Mean (MiaPaca-2 * PA): 9.81
Gene CEBPG, probeset 11717694_a_at, MiaPaca-2
  Fold-Change (MiaPaca-2 * PA vs. MiaPaca-2 * control): 1.51
Gene CEBPG, probeset 11717694_a_at, MiaPaca-2, PA-treated
  Mean (MiaPaca-2 * PA): 8.37
Gene CIDEB, probeset 11752838_s_at, MiaPaca-2
  Fold-Change (MiaPaca-2 * PA vs. MiaPaca-2 * control): 1.52
Gene CIDEB, probeset 11752838_s_at, MiaPaca-2, PA-treated
  Mean (MiaPaca-2 * PA): 5.52
[12]
  Fold-Change (MiaPaca-2 * PA vs. MiaPaca-2 * control): 1.65
  Mean (MiaPaca-2 * PA): 5.48
[13]
  Fold-Change (MiaPaca-2 * PA vs. MiaPaca-2 * control): 1.56
  Mean (MiaPaca-2 * PA): 7.43
[14]
  Fold-Change (MiaPaca-2 * PA vs. MiaPaca-2 * control): 1.61
  Mean (MiaPaca-2 * PA): 7.37
[15]
  Fold-Change (MiaPaca-2 * PA vs. MiaPaca-2 * control): 1.54
  Mean (MiaPaca-2 * PA): 6.68
[16]
  Fold-Change (MiaPaca-2 * PA vs. MiaPaca-2 * control): 1.59
  Mean (MiaPaca-2 * PA): 10.46
[17]
  Fold-Change (MiaPaca-2 * PA vs. MiaPaca-2 * control): 1.56
  Mean (MiaPaca-2 * PA): 11.54
Gene DUSP2, probeset 11721695_s_at, MiaPaca-2
  Fold-Change (MiaPaca-2 * PA vs. MiaPaca-2 * control): 1.51
Gene DUSP2, probeset 11721695_s_at, MiaPaca-2, PA-treated
  Mean (MiaPaca-2 * PA): 7.47
Gene DUSP5, probeset 11717863_a_at, MiaPaca-2
  Fold-Change (MiaPaca-2 * PA vs. MiaPaca-2 * control): 1.52
Gene DUSP5, probeset 11717863_a_at, MiaPaca-2, PA-treated
  Mean (MiaPaca-2 * PA): 7.89
Gene DUSP6, probeset 11741980_a_at, MiaPaca-2
  Fold-Change (MiaPaca-2 * PA vs. MiaPaca-2 * control): 1.53
Gene DUSP6, probeset 11741980_a_at, MiaPaca-2, PA-treated
  Mean (MiaPaca-2 * PA): 10.54
[18]
  Fold-Change (MiaPaca-2 * PA vs. MiaPaca-2 * control): 1.65
  Mean (MiaPaca-2 * PA): 7.37
[19]
  Fold-Change (MiaPaca-2 * PA vs. MiaPaca-2 * control): 1.60
  Mean (MiaPaca-2 * PA): 10.76
[20]
  Fold-Change (MiaPaca-2 * PA vs. MiaPaca-2 * control): 1.55
  Mean (MiaPaca-2 * PA): 6.51
[21]
  Fold-Change (MiaPaca-2 * PA vs. MiaPaca-2 * control): 1.61
  Mean (MiaPaca-2 * PA): 10.11
[22]
  Fold-Change (MiaPaca-2 * PA vs. MiaPaca-2 * control): 1.66
  Mean (MiaPaca-2 * PA): 7.82
Gene EIF4A2 /// SNORA4, probeset 11757137_s_at, MiaPaca-2
  Fold-Change (MiaPaca-2 * PA vs. MiaPaca-2 * control): 1.51
Gene EIF4A2 /// SNORA4, probeset 11757137_s_at, MiaPaca-2, PA-treated
  Mean (MiaPaca-2 * PA): 5.63
Gene EREG, probeset 11763822_at, MiaPaca-2
  Fold-Change (MiaPaca-2 * PA vs. MiaPaca-2 * control): 1.52
Gene EREG, probeset 11763822_at, MiaPaca-2, PA-treated
  Mean (MiaPaca-2 * PA): 6.66
Gene FLJ36031, probeset 11739442_s_at, MiaPaca-2
  Fold-Change (MiaPaca-2 * PA vs. MiaPaca-2 * control): 1.53
Gene FLJ36031, probeset 11739442_s_at, MiaPaca-2, PA-treated
  Mean (MiaPaca-2 * PA): 8.29
[23]
  Fold-Change (MiaPaca-2 * PA vs. MiaPaca-2 * control): 1.61
  Mean (MiaPaca-2 * PA): 7.33
Gene FOSL1, probeset 11724479_x_at, MiaPaca-2
  Fold-Change (MiaPaca-2 * PA vs. MiaPaca-2 * control): 1.52
Gene FOSL1, probeset 11724479_x_at, MiaPaca-2, PA-treated
  Mean (MiaPaca-2 * PA): 6.50
[24]
  Fold-Change (MiaPaca-2 * PA vs. MiaPaca-2 * control): 1.56
  Mean (MiaPaca-2 * PA): 8.39
Gene GBP1, probeset 11726328_x_at, MiaPaca-2
  Fold-Change (MiaPaca-2 * PA vs. MiaPaca-2 * control): 1.50
Gene GBP1, probeset 11726328_x_at, MiaPaca-2, PA-treated
  Mean (MiaPaca-2 * PA): 5.03
Gene HERPUD1, probeset 11741510_a_at, MiaPaca-2
  Fold-Change (MiaPaca-2 * PA vs. MiaPaca-2 * control): 1.50
Gene HERPUD1, probeset 11741510_a_at, MiaPaca-2, PA-treated
  Mean (MiaPaca-2 * PA): 9.22
[25]
  Fold-Change (MiaPaca-2 * PA vs. MiaPaca-2 * control): 1.60
  Mean (MiaPaca-2 * PA): 8.79
[26]
  Fold-Change (MiaPaca-2 * PA vs. MiaPaca-2 * control): 1.59
  Mean (MiaPaca-2 * PA): 6.86
Gene HMOX1, probeset 11753446_x_at, MiaPaca-2
  Fold-Change (MiaPaca-2 * PA vs. MiaPaca-2 * control): 1.50
Gene HMOX1, probeset 11753446_x_at, MiaPaca-2, PA-treated
  Mean (MiaPaca-2 * PA): 6.67
